Measured values from patent US20040048279A1, “Method for detecting methylation states for a toxicological diagnostic” (priority 2000, published 2004).

How the values were obtained:
[1] = tested on: HT29-P208 cells; experiment: Methylation state of CpG positions by bisulfite treatment, multiplex PCR and oligonucleotide array hybridization in treated HT29-P208 cells; assay type: cell-based; details: for methylation state of selected CpGs of the genes TGF-a, EGFR, ANT1 and E-cadherin (CG signal / (CG+TG signal)) / methylation state of selected CpG positions of the genes EGFR, ANT1 and CDC25A (CG signal / (CG+TG signal)): treated versus untreated; for methylation state of selected CpGs of the genes TGF-a, EGFR, ANT1 and E-cadherin (CG signal / (CG+TG signal)): FIG. 3; for differences in methylation of 64 gene fragments versus controls: treatment time 6 h (data not shown); for degree of methylation of various CpG positions of 64 gene fragments, in contrast to controls (HT29-P208 in medium): treatment time 24 h, 10 ng/ml TGF-b1 or 10 ng/ml IL-1b in medium, FIGS. 1 and 2, p<0.05; for methylation state of selected CpG positions of the genes EGFR, ANT1 and CDC25A (CG signal / (CG+TG signal)): trichostatin 50 nM or milrinone 50 μM, FIG. 4
Method: HT-29 P208 cells (5×10^4 cells/ml) were seeded in culture dishes (33×5 cm) and grown for 5 days in DMEM/Ham's F-12 medium, which was supplemented with 10% fetal calf serum at 37° C. and 5% CO2, up to 95% confluence (Campbell-Thompson, M. and Bhardwaj, B., Cancer Research 2001, 61, 632-640). The cells were then incubated for 24 h in medium not containing calf serum. After repeated change of medium, the cells were incubated in 3 parallel cultures for 6 h and 24 h, either with medium, medium supplemented with 10 ng/ml TGF-b1, medium supplemented with 10 ng/ml IL-1b, medium supplemented with trichostatin (50 nM) or medium supplemented with milrinone (50 μM). The cells freed of medium were treated with trypsin, centrifuged, and resuspended in 200 μl of PBS buffer (Fritsch and Maniatis eds., Molecular Cloning: A Laboratory Manual, 1989), and stored at −20° C. The chromosomal DNA was purified with a QIAamp Kit according to the manufacturer's instructions (Qiagen, Hilden).
The DNA samples (20 ng) were digested with the restriction enzyme Mss1. The digested DNA was chemically converted with hydrogen sulfite (bisulfite, disulfite) and a radical trap at elevated temperature (DE 10050942). In this way, after alkaline hydrolysis, all unmethylated cytosines are converted to uracil, which correspond in their base-pairing behavior to thymidine. In contrast, 5-methylcytosine is not modified under these conditions.
The chemically pretreated DNA was then amplified with the use of a heat-stable DNA polymerase in a polymerase chain reaction. The multiplex PCR reactions were conducted with a thermocycler (Eppendorf GmbH) with the use of 10 ng of bisulfite-treated DNA, each time with […] of primer oligonucleotides (mixture of up to 32 individual primer oligonucleotides; see Table 3), 800 μM dNTPs and 4.5 mM magnesium chloride. The cycler program was as follows: step 1, 14 min at 96° C.; step 2, 60 sec 96° C.; step 3, 45 sec 55° C.; step 4, 75 sec 72° C.; step 5, 10 min at 72° C.; steps 2 to 4 were repeated 39 times.
The DNA fragments of 64 different genes listed in Table 3 were amplified with 6 sets of multiplex PCR (mPCR) and with bisulfite-treated DNA as the template, as described above. The mPCR reactions (I, J, K, L, M, N) of the genomic, bisulfite-treated DNA were conducted with the combination of primer oligonucleotides as listed in Table 3. It is also possible, however, to use other primer oligonucleotides in the same way for the amplification of the genomic, bisulfite-treated DNA. The primer pairs listed in Table 1, however, are particularly preferred.
The amplificates produced in Example 2 were hybridized with 512 oligonucleotides, which were bound to a solid phase (Model, F. and Adorjian, P., Bioinformatics 2001, 17 Suppl. 1, 157-164). The solid phase loaded with oligonucleotides is named an oligonucleotide array below. The detectability of the hybridization product is based on primer oligonucleotides fluorescently labeled with Cy5, which were used for the amplification. A hybridization reaction of the amplified DNA with the oligonucleotide, for example, GTTTTTTTCGTTTTAGAG (Sequence ID 6), occurs only when a methylated cytosine is present at the said site of the bisulfite-treated DNA. Thus, the methylation state of the specific cytosine can be determined by means of the hybridization product. In order to verify the methylation state of said position, an oligonucleotide is found on the oligonucleotide array, which permits it to detect the unmethylated cytosine. This oligonucleotide is identical to the oligonucleotide which was previously used for the analysis of the methylated status of the sample, with the exception that the oligonucleotide bears a thymine base instead of a cytosine base at the position to be analyzed, e.g., GTTTTTTTTGTTTTAGAG (Sequence ID 7). Thus, a hybridization reaction occurs only if an unmethylated cytosine is present at the position to be analyzed. […]

[2] = tested on: Cyp1a1; details: mice exposed to the substance; Arch Biochem Biophys 2000;376(1):66-73; cited from earlier work

| Molecule | methylation state of selected CpGs of the genes TGF-a, EGFR, ANT1 and E-cadherin (CG signal / (CG+TG signal)) [1] | differences in methylation of 64 gene fragments versus controls [1] | degree of methylation of various CpG positions of 64 gene fragments, in contrast to controls (HT29-P208 in medium) [1] | methylation state of selected CpG positions of the genes EGFR, ANT1 and CDC25A (CG signal / (CG+TG signal)) [1] | Cyp1a1 gene expression after exposure [2] |
| --- | --- | --- | --- | --- | --- |
| IL-1b: IL-1b (interleukin), exogenous cytokine added to medium at 10 ng/ml | no change or to an increase in the methylation state | no significant differences in methylation | greater degree of methylation |  |  |
| TGF-b1: TGF-b1 (transforming growth factor), exogenous cytokine added to medium at 10 ng/ml | significant reduction of the methylation state | no significant differences in methylation | smaller degree of methylation |  |  |
| CC(/C=C/C(=O)NO)=C\[C@@H](C)C(=O)c1ccc(N(C)C)cc1 [trichostatin, reference compound] |  |  |  | increase |  |
| Cc1[nH]c(=O)c(C#N)cc1-c1ccncc1 [milrinone, reference compound] |  |  |  | reduction in the methylation state |  |
| O=c1cc(-c2ccccc2)oc2ccc3ccccc3c12 [beta-naphthoflavone] |  |  |  |  | induced |
